For this experiment, the target named is T1, cyclooxygenase-1 (Cox-1) (Ovis aries, UniProt P05979).
T1 construct: purchased Cayman Chemical Company 760111
T1 sequence (P05979 25-600): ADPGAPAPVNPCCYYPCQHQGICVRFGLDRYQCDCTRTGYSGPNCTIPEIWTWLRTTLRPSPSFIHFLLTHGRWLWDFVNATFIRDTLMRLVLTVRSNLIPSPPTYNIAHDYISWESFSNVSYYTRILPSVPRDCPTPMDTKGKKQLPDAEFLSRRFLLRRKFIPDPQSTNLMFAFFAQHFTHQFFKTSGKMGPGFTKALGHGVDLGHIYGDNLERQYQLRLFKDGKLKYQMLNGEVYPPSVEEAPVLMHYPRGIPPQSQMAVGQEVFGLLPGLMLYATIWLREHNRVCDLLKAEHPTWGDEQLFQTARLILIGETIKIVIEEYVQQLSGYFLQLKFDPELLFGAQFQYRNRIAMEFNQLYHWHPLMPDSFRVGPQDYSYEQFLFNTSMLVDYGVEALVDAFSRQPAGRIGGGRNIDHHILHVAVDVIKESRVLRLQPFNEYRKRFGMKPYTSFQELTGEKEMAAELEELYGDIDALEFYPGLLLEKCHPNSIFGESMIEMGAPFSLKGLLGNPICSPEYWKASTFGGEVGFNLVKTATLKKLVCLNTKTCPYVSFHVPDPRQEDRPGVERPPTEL
In words: Colorimetric Cox inhibitor screening assay (Cayman Chemical, Cat. No. 760111). The class given is biochemical. Here is the method:
Inhibition of Cox-1 is determined using the Colorimetric Cox inhibitor screening assay provided by Cayman Chemical Company, Ann Arbor, MI, USA. (Cat. No. 760111) according to manufacturer's instructions.

Consider `CC(C)[C@H](C(=O)O)c1ccc(-c2cccc(C(F)(F)F)c2)cc1` [title compound of example 1, 2(S)-(3'-trifluoromethyl-biphenyl-4-yl)-3-methyl-butanoic acid], for which the “inhibitory effect against Cox-1 activity” value is “no inhibitory effect”.

Source of the values: patent EP1657232A1, “Use of S-enantiomers of alpha-sustituted aryl acetic acids for the prevention of Alzheimer's disease” (CELLZOME AG, priority 2004, dated 2006).
